Experimental data: paper PMC9095875, “Solubility measurement and thermodynamic modeling of pantoprazole sodium sesquihydrate in supercritical carbon dioxide” (Scientific Reports, 2022)
“And” between values parts separate entries of the source, which are not always exact repeats. Identical values can stand only once. Marks after values point to notes of the source that are not given here.

Legend:
[1] = Thermodynamic properties calculated from constants of the Chrastil, reformulated Chrastil and Bartle solubility models; assay type: physicochemical
From the text: It is the first solvate complex model and correlates solubility as a function of supercritical fluid density and temperature as:18 y2=ρ1^κ-1[…] where κ and E0-E1 are model constants. Since Eq. (13) is dimensionally inconsistent[24],[26],[39], it is dimensionally corrected and known as Reformulated […] model:19 y2=[…] where κ^' and E0-E1 are model constants. It is one of the successful empirical models and correlates solubility as a function of temperature, supercritical fluid density and total pressure as:20 […] where G0-G2 are model constants. From parameter G1 , the vaporization enthalpy is ΔvapH=-G1R in which R is universal gas constant. The new solution model proposed in this work has three adjustable parameters ( ΔCp , a11 and a22 ). For regression, these parameters are treated as temperature dependent and temperature independent. Although conceptually, these parameters are temperature dependent[43],[44], however, in literature, these parameters are handled as temperature independent over a small temperature range[45]. Therefore, both temperature dependent and independent results are reported in this study. For regression, melting temperature and molar volume of pantoprazole sodium sesquihydrate are needed. The required melting temperature is obtained from the material's source and the molar volume of the solid pantoprazole sodium sesquihydrate is calculated using Immirzi and […] method. […] The proposed model correlates the data less than 14.9% and 16.23% in terms of AARD% for temperature dependent and independent cases, respectively. […] The correlations of the solubility data with temperature dependent parameters are better than temperature independent parameters. […], Sodeifian et al., and […] models correlate the solubility data. The correlations of the data are quite satisfactory for […] model compared to […] and Sodeifian models. From the conventional model constants, the thermodynamic properties, namely total heat of enthalpy of vaporization and solvation are calculated and reported in Table 6. […]

[2] = Solubility of solid drug in supercritical carbon dioxide (isobaric-isothermal method, UV-Vis at 290 nm); assay type: physicochemical; details: for y2 × 10^4 (mole fraction): value is y2 × 10^4
Experimental: The method utilized is considered as the isobaric-isothermal method. Each measurement is performed with high precision, during experiments; temperature is maintained at desired value within ± 0.1 K. A known amount of pantoprazole sodium sesquihydrate drug (solute) has been used in the equilibrium cell to measure the solubility data. The capacity of the cell is 70 mL. A magnetic stirrer was mounted with the cell to measure the solubility data. A magnetic stirrer that is mounted with the equilibrium cell helps in attaining equilibrium between the solute and the ScCO2. To confirm equilibrium attainment, the experiments are done with a fresh sample at specified temperature and pressure at various time intervals (5 min, 10 min, 20 min, 30 min, 40 min, 50 min and 60 min) and the solubility readings are recorded. It is observed that the solubility is independent of time after 30 min. Thus, for correct results after 60 min, samples are considered for analysis. After equilibrium, 600 μL of a saturated sample is collected in dematerialized water (DM water's conductivity is 1μS/cm) via a 6-way port, two-status valve. More details are readily available elsewhere[30],[31]. This experimental setup has already been validated in the previous work with alpha-tocopherol and naphthalene. Each experiment is carried out in triplicate. Spectrophotometer (UV-Visible, Model UNICO-4802) is utilized to quantify the pantoprazole sodium sesquihydrate solubility. The drug test samples were prepared by dissolving known weights of drug in known volume of DM water. Pantoprazole sodium sesquihydrate samples were analyzed at 290 nm and calibrations curve was established, indicating R^2 of 0.99. The following sets of equations are used to calculate equilibrium mole fraction, y2, and solubility, S (g/L), in ScCO2:1 y2=nsolute/nsolute+nCO2, where:2 […]/mol,and 3 […]/mol 4 […]) where nsolute and nCO2 are moles of solute (Pantoprazole sodium sesquihydrate) and CO2 in the sampling loop, respectively, Cs is the solute concentration (g/L), Ms and MCO2 are molecular weights of the solute and CO2 and S (g/L) is the equilibrium solubility.

Enthalpy of solvation, ΔHsol ([1]; Bartle et al. and Chrastil models combination (difference of ΔHvap and ΔHtotal)): −15.829 kJ/mol and −15.829^d kJ/mol
Enthalpy of vaporization ΔHvap ([1]; from Bartle et al. model (ΔvapH = −G1R)): ~75.261^c (approximate value) kJ/mol
Total enthalpy, ΔHtotal ([1]; from Reformulated Chrastil model): 39.832^b kJ/mol
y2 × 10^4 (mole fraction) ([2]; in ScCO2, 308 K, 12 MPa, ScCO2 density 769 kg/m^3): 0.0648 mole fraction
y2 × 10^4 (mole fraction) ([2]; in ScCO2, 308 K, 15 MPa, ScCO2 density 817 kg/m^3): 0.0764 mole fraction
y2 × 10^4 (mole fraction) ([2]; in ScCO2, 308 K, 18 MPa, ScCO2 density 849 kg/m^3): 0.0921 mole fraction
y2 × 10^4 (mole fraction) ([2]; in ScCO2, 308 K, 21 MPa, ScCO2 density 875 kg/m^3): 0.0958 mole fraction
y2 × 10^4 (mole fraction) ([2]; in ScCO2, 308 K, 24 MPa, ScCO2 density 896 kg/m^3): 0.1239 mole fraction
y2 × 10^4 (mole fraction) ([2]; in ScCO2, 308 K, 27 MPa, ScCO2 density 914 kg/m^3): 0.1489 mole fraction
y2 × 10^4 (mole fraction) ([2]; in ScCO2, 318 K, 12 MPa, ScCO2 density 661 kg/m^3): 0.0548 mole fraction
y2 × 10^4 (mole fraction) ([2]; in ScCO2, 318 K, 15 MPa, ScCO2 density 744 kg/m^3): 0.0580 mole fraction
y2 × 10^4 (mole fraction) ([2]; in ScCO2, 318 K, 18 MPa, ScCO2 density 791 kg/m^3): 0.0990 mole fraction
y2 × 10^4 (mole fraction) ([2]; in ScCO2, 318 K, 21 MPa, ScCO2 density 824 kg/m^3): 0.1192 mole fraction
y2 × 10^4 (mole fraction) ([2]; in ScCO2, 318 K, 24 MPa, ScCO2 density 851 kg/m^3): 0.1436 mole fraction
y2 × 10^4 (mole fraction) ([2]; in ScCO2, 318 K, 27 MPa, ScCO2 density 872 kg/m^3): 0.1930 mole fraction
y2 × 10^4 (mole fraction) ([2]; in ScCO2, 328 K, 12 MPa, ScCO2 density 509 kg/m^3): 0.0381 mole fraction
y2 × 10^4 (mole fraction) ([2]; in ScCO2, 328 K, 15 MPa, ScCO2 density 656 kg/m^3): 0.0498 mole fraction
y2 × 10^4 (mole fraction) ([2]; in ScCO2, 328 K, 18 MPa, ScCO2 density 725 kg/m^3): 0.1388 mole fraction
y2 × 10^4 (mole fraction) ([2]; in ScCO2, 328 K, 21 MPa, ScCO2 density 769 kg/m^3): 0.1579 mole fraction
y2 × 10^4 (mole fraction) ([2]; in ScCO2, 328 K, 24 MPa, ScCO2 density 802 kg/m^3): 0.2354 mole fraction
y2 × 10^4 (mole fraction) ([2]; in ScCO2, 328 K, 27 MPa, ScCO2 density 829 kg/m^3): 0.3106 mole fraction
y2 × 10^4 (mole fraction) ([2]; in ScCO2, 338 K, 12 MPa, ScCO2 density 388 kg/m^3): 0.0301 mole fraction
y2 × 10^4 (mole fraction) ([2]; in ScCO2, 338 K, 15 MPa, ScCO2 density 557 kg/m^3): 0.0403 mole fraction
y2 × 10^4 (mole fraction) ([2]; in ScCO2, 338 K, 18 MPa, ScCO2 density 652 kg/m^3): 0.1548 mole fraction
y2 × 10^4 (mole fraction) ([2]; in ScCO2, 338 K, 21 MPa, ScCO2 density 710 kg/m^3): 0.1938 mole fraction
y2 × 10^4 (mole fraction) ([2]; in ScCO2, 338 K, 24 MPa, ScCO2 density 751 kg/m^3): 0.3408 mole fraction
y2 × 10^4 (mole fraction) ([2]; in ScCO2, 338 K, 27 MPa, ScCO2 density 783 kg/m^3): 0.4634 mole fraction
cross over pressure ([2]; solubility isotherms 308-338 K in ScCO2, from Fig. 2): around 16.0 MPa
SMILES: COc1ccnc(C[S+]([O-])c2nc3ccc(OC(F)F)cc3[nH]2)c1OC (stereo not shown) [pantoprazole sodium sesquihydrate, Pantoprazole sodium sesquihydrate]
